Data: ChEMBL document CHEMBL6087416, “Discovery of novel fused-heterocycle-bearing diarypyrimidine derivatives as HIV-1 potent NNRTIs targeting tolerant region I for enhanced antiviral activity and resistance profile” (Eur J Med Chem, 2025)

Tested on: Human immunodeficiency virus 1
Experiment: Antiviral activity against NNRTI-resistant HIV-1 harboring RT K103N mutant infected in human MT4 cells assessed as protection against virus-induced cytopathic effect incubated for 5 days by MTT assay
Assay type: functional, organism-based
Details: Human immunodeficiency virus 1, MT4, 120 h

Row | SMILES | EC50
1 | Cc1cc(/C=C/C#N)cc(C)c1Oc1ccnc(Nc2ccc3c(c2)COC3)n1 | 6 nM
2 | Cc1cc(/C=C/C#N)cc(C)c1Oc1ccnc(Nc2ccc3nccn3c2)n1 | 8 nM
3 | Cc1cc(/C=C/C#N)cc(C)c1Oc1ccnc(Nc2ccc3c(c2)NC(=O)C3)n1 | 4 nM
4 | Cc1cc(/C=C/C#N)cc(C)c1Oc1ccnc(Nc2ccc(N3CCN(S(C)(=O)=O)CC3)c(C#N)c2)n1 | 2 nM
5 | Cc1cc(/C=C/C#N)cc(C)c1Oc1ccnc(Nc2ccc3c(c2)C(=O)NCC3)n1 | 11 nM
6 | Cc1cc(/C=C/C#N)cc(C)c1Oc1ccnc(Nc2ccc3c(cnn3C)c2)n1 | 18 nM
7 | Cc1cc(/C=C/C#N)cc(C)c1Oc1ccnc(Nc2ccc3cnsc3c2)n1 | 4 nM
8 | Cc1ccnc2c1NC(=O)c1cccnc1N2C1CC1 [NEVIRAPINE] | 5220 nM

Tested on: Human immunodeficiency virus 1
Experiment: Antiviral activity against NNRTI-resistant HIV-1 harboring RT E138K mutant infected in human MT4 cells assessed as protection against virus-induced cytopathic effect incubated for 5 days by MTT assay
Assay type: functional, organism-based
Details: Human immunodeficiency virus 1, MT4, 120 h

Row | SMILES | EC50
9 | Cc1cc(/C=C/C#N)cc(C)c1Oc1ccnc(Nc2ccc3c(c2)COC3)n1 | 39 nM
10 | Cc1cc(/C=C/C#N)cc(C)c1Oc1ccnc(Nc2ccc3nccn3c2)n1 | 58 nM
11 | Cc1cc(/C=C/C#N)cc(C)c1Oc1ccnc(Nc2ccc3c(c2)NC(=O)C3)n1 | 46 nM
12 | Cc1cc(/C=C/C#N)cc(C)c1Oc1ccnc(Nc2ccc(N3CCN(S(C)(=O)=O)CC3)c(C#N)c2)n1 | 6 nM
13 | Cc1cc(/C=C/C#N)cc(C)c1Oc1ccnc(Nc2ccc3c(c2)C(=O)NCC3)n1 | 21 nM
14 | Cc1cc(/C=C/C#N)cc(C)c1Oc1ccnc(Nc2ccc3c(cnn3C)c2)n1 | 54 nM
15 | Cc1cc(/C=C/C#N)cc(C)c1Oc1ccnc(Nc2ccc3cnsc3c2)n1 | 14 nM

Tested on: Human immunodeficiency virus 1
Experiment: not given
Assay type: functional, organism-based
Details: Human immunodeficiency virus 1, MT4, 120 h

Row | SMILES | EC50
16 | Cc1cc(/C=C/C#N)cc(C)c1Oc1ccnc(Nc2ccc3c(c2)COC3)n1 | 99 nM
17 | Cc1cc(/C=C/C#N)cc(C)c1Oc1ccnc(Nc2ccc3nccn3c2)n1 | 210 nM
18 | Cc1cc(/C=C/C#N)cc(C)c1Oc1ccnc(Nc2ccc3c(c2)NC(=O)C3)n1 | 72 nM
19 | Cc1cc(/C=C/C#N)cc(C)c1Oc1ccnc(Nc2ccc(N3CCN(S(C)(=O)=O)CC3)c(C#N)c2)n1 | 6 nM
20 | Cc1cc(/C=C/C#N)cc(C)c1Oc1ccnc(Nc2ccc3c(c2)C(=O)NCC3)n1 | 44 nM
21 | Cc1cc(/C=C/C#N)cc(C)c1Oc1ccnc(Nc2ccc3c(cnn3C)c2)n1 | 180 nM
22 | Cc1cc(/C=C/C#N)cc(C)c1Oc1ccnc(Nc2ccc3cnsc3c2)n1 | 48 nM
23 | Cc1ccnc2c1NC(=O)c1cccnc1N2C1CC1 [NEVIRAPINE] | 5830 nM

Tested on: Human immunodeficiency virus 1
Experiment: Antiviral activity against NNRTI-resistant HIV-1 harboring RT L100I mutant infected in human MT4 cells assessed as protection against virus-induced cytopathic effect incubated for 5 days by MTT assay
Assay type: functional, organism-based
Details: Human immunodeficiency virus 1, MT4, 120 h

Row | SMILES | EC50
24 | Cc1cc(/C=C/C#N)cc(C)c1Oc1ccnc(Nc2ccc3c(c2)COC3)n1 | 47 nM
25 | Cc1cc(/C=C/C#N)cc(C)c1Oc1ccnc(Nc2ccc3nccn3c2)n1 | 64 nM
26 | Cc1cc(/C=C/C#N)cc(C)c1Oc1ccnc(Nc2ccc3c(c2)NC(=O)C3)n1 | 54 nM
27 | Cc1cc(/C=C/C#N)cc(C)c1Oc1ccnc(Nc2ccc(N3CCN(S(C)(=O)=O)CC3)c(C#N)c2)n1 | 4 nM
28 | Cc1cc(/C=C/C#N)cc(C)c1Oc1ccnc(Nc2ccc3c(c2)C(=O)NCC3)n1 | 14 nM
29 | Cc1cc(/C=C/C#N)cc(C)c1Oc1ccnc(Nc2ccc3c(cnn3C)c2)n1 | 92 nM
30 | Cc1cc(/C=C/C#N)cc(C)c1Oc1ccnc(Nc2ccc3cnsc3c2)n1 | 14 nM

Tested on: Human immunodeficiency virus 1
Experiment: not given
Assay type: functional, organism-based
Details: Human immunodeficiency virus 1, MT4, 120 h
Remark: another data set of the same source

Row | SMILES | EC50
31 | Cc1cc(/C=C/C#N)cc(C)c1Oc1ccnc(Nc2ccc3c(c2)COC3)n1 | 4900 nM
32 | Cc1cc(/C=C/C#N)cc(C)c1Oc1ccnc(Nc2ccc3nccn3c2)n1 | 3910 nM
33 | Cc1cc(/C=C/C#N)cc(C)c1Oc1ccnc(Nc2ccc3c(c2)NC(=O)C3)n1 | > 50300 nM
34 | Cc1cc(/C=C/C#N)cc(C)c1Oc1ccnc(Nc2ccc(N3CCN(S(C)(=O)=O)CC3)c(C#N)c2)n1 | 740 nM
35 | Cc1cc(/C=C/C#N)cc(C)c1Oc1ccnc(Nc2ccc3c(c2)C(=O)NCC3)n1 | > 3190 nM
36 | Cc1cc(/C=C/C#N)cc(C)c1Oc1ccnc(Nc2ccc3c(cnn3C)c2)n1 | > 50400 nM
37 | Cc1cc(/C=C/C#N)cc(C)c1Oc1ccnc(Nc2ccc3cnsc3c2)n1 | 990 nM
38 | Cc1ccnc2c1NC(=O)c1cccnc1N2C1CC1 [NEVIRAPINE] | > 9510 nM

Tested on: Human immunodeficiency virus 1
Experiment: not given
Assay type: functional, organism-based
Details: Human immunodeficiency virus 1, RES056, MT4, 120 h

Row | SMILES | EC50
39 | Cc1cc(/C=C/C#N)cc(C)c1Oc1ccnc(Nc2ccc3c(c2)COC3)n1 | 1080 nM
40 | Cc1cc(/C=C/C#N)cc(C)c1Oc1ccnc(Nc2ccc3nccn3c2)n1 | 1450 nM
41 | Cc1cc(/C=C/C#N)cc(C)c1Oc1ccnc(Nc2ccc3c(c2)NC(=O)C3)n1 | 33700 nM
42 | Cc1cc(/C=C/C#N)cc(C)c1Oc1ccnc(Nc2ccc(N3CCN(S(C)(=O)=O)CC3)c(C#N)c2)n1 | 93 nM
43 | Cc1cc(/C=C/C#N)cc(C)c1Oc1ccnc(Nc2ccc3c(c2)C(=O)NCC3)n1 | 1340 nM
44 | Cc1cc(/C=C/C#N)cc(C)c1Oc1ccnc(Nc2ccc3c(cnn3C)c2)n1 | > 50400 nM
45 | Cc1cc(/C=C/C#N)cc(C)c1Oc1ccnc(Nc2ccc3cnsc3c2)n1 | 450 nM
46 | Cc1ccnc2c1NC(=O)c1cccnc1N2C1CC1 [NEVIRAPINE] | > 9510 nM

Tested on: Human immunodeficiency virus 1
Experiment: not given
Assay type: functional, organism-based
Details: Human immunodeficiency virus 1, MT4, 120 h
Remark: another data set of the same source

Row | SMILES | EC50
47 | Cc1cc(/C=C/C#N)cc(C)c1Oc1ccnc(Nc2ccc3c(c2)COC3)n1 | 700 nM
48 | Cc1cc(/C=C/C#N)cc(C)c1Oc1ccnc(Nc2ccc3nccn3c2)n1 | 960 nM
49 | Cc1cc(/C=C/C#N)cc(C)c1Oc1ccnc(Nc2ccc3c(c2)NC(=O)C3)n1 | 14400 nM
50 | Cc1cc(/C=C/C#N)cc(C)c1Oc1ccnc(Nc2ccc(N3CCN(S(C)(=O)=O)CC3)c(C#N)c2)n1 | 10 nM
51 | Cc1cc(/C=C/C#N)cc(C)c1Oc1ccnc(Nc2ccc3c(c2)C(=O)NCC3)n1 | > 3190 nM
52 | Cc1cc(/C=C/C#N)cc(C)c1Oc1ccnc(Nc2ccc3c(cnn3C)c2)n1 | > 50400 nM
53 | Cc1cc(/C=C/C#N)cc(C)c1Oc1ccnc(Nc2ccc3cnsc3c2)n1 | 500 nM
54 | Cc1ccnc2c1NC(=O)c1cccnc1N2C1CC1 [NEVIRAPINE] | > 9510 nM

Tested on: not listed separately
Experiment: Cytotoxicity against human MT4 cells assessed as reduction in cell viability measured after 5 days by MTT assay
Assay type: toxicity, cell-based
Details: time 5 day

Row | SMILES | CC50 at 120 h
55 | Cc1cc(/C=C/C#N)cc(C)c1Oc1ccnc(Nc2ccc3c(c2)COC3)n1 | 14000 nM
56 | Cc1cc(/C=C/C#N)cc(C)c1Oc1ccnc(Nc2ccc3nccn3c2)n1 | 28700 nM
57 | Cc1cc(/C=C/C#N)cc(C)c1Oc1ccnc(Nc2ccc3c(c2)NC(=O)C3)n1 | > 50300 nM
58 | Cc1cc(/C=C/C#N)cc(C)c1Oc1ccnc(Nc2ccc(N3CCN(S(C)(=O)=O)CC3)c(C#N)c2)n1 | 10200 nM
59 | Cc1cc(/C=C/C#N)cc(C)c1Oc1ccnc(Nc2ccc3c(c2)C(=O)NCC3)n1 | 3190 nM
60 | Cc1cc(/C=C/C#N)cc(C)c1Oc1ccnc(Nc2ccc3c(cnn3C)c2)n1 | > 50400 nM
61 | Cc1cc(/C=C/C#N)cc(C)c1Oc1ccnc(Nc2ccc3cnsc3c2)n1 | 10100 nM
62 | Cc1ccnc2c1NC(=O)c1cccnc1N2C1CC1 [NEVIRAPINE] | > 9510 nM

Tested on: Human immunodeficiency virus 2
Experiment: Antiviral activity against HIV-2 ROD infected in human MT4 cells assessed as protection against virus-induced cytopathic effect incubated for 5 days by MTT assay
Assay type: functional, organism-based
Details: Human immunodeficiency virus 2, ROD, MT4, 120 h

Row | SMILES | EC50
63 | Cc1cc(/C=C/C#N)cc(C)c1Oc1ccnc(Nc2ccc3c(c2)COC3)n1 | > 14000 nM
64 | Cc1cc(/C=C/C#N)cc(C)c1Oc1ccnc(Nc2ccc3nccn3c2)n1 | > 28700 nM
65 | Cc1cc(/C=C/C#N)cc(C)c1Oc1ccnc(Nc2ccc3c(c2)NC(=O)C3)n1 | > 50300 nM
66 | Cc1cc(/C=C/C#N)cc(C)c1Oc1ccnc(Nc2ccc(N3CCN(S(C)(=O)=O)CC3)c(C#N)c2)n1 | > 10200 nM
67 | Cc1cc(/C=C/C#N)cc(C)c1Oc1ccnc(Nc2ccc3c(c2)C(=O)NCC3)n1 | > 3190 nM
68 | Cc1cc(/C=C/C#N)cc(C)c1Oc1ccnc(Nc2ccc3c(cnn3C)c2)n1 | > 50400 nM
69 | Cc1cc(/C=C/C#N)cc(C)c1Oc1ccnc(Nc2ccc3cnsc3c2)n1 | > 10100 nM
70 | Cc1ccnc2c1NC(=O)c1cccnc1N2C1CC1 [NEVIRAPINE] | > 9510 nM

Molecular target: Human immunodeficiency virus type 1 reverse transcriptase (Human immunodeficiency virus 1, UniProt Q72547)
Experiment: Inhibition of wild type HIV-1 Reverse transcriptase incubated for 1 hrs by ELISA analysis
Details: not given

Row | SMILES | IC50
71 | Cc1cc(/C=C/C#N)cc(C)c1Oc1ccnc(Nc2ccc3c(c2)COC3)n1 | 29 nM
72 | Cc1cc(/C=C/C#N)cc(C)c1Oc1ccnc(Nc2ccc3nccn3c2)n1 | 29 nM
73 | Cc1cc(/C=C/C#N)cc(C)c1Oc1ccnc(Nc2ccc3c(c2)NC(=O)C3)n1 | 53 nM
74 | Cc1cc(/C=C/C#N)cc(C)c1Oc1ccnc(Nc2ccc3c(c2)C(=O)NCC3)n1 | 46 nM
75 | Cc1cc(/C=C/C#N)cc(C)c1Oc1ccnc(Nc2ccc3c(cnn3C)c2)n1 | 45 nM
76 | Cc1cc(/C=C/C#N)cc(C)c1Oc1ccnc(Nc2ccc3cnsc3c2)n1 | 19 nM

Tested on: not listed separately
Experiment: in vitro
Details: human, MT4 cells
Description: Selectivity index, ratio of CC50 for human MT4 cells to EC50 for wild type HIV-1 IIIB infected in human MT4 cells

Row | SMILES | selectivity ratio
77 | Cc1cc(/C=C/C#N)cc(C)c1Oc1ccnc(Nc2ccc3c(c2)COC3)n1 | 7440
78 | Cc1cc(/C=C/C#N)cc(C)c1Oc1ccnc(Nc2ccc3nccn3c2)n1 | 14600
79 | Cc1cc(/C=C/C#N)cc(C)c1Oc1ccnc(Nc2ccc3c(c2)NC(=O)C3)n1 | > 27600
80 | Cc1cc(/C=C/C#N)cc(C)c1Oc1ccnc(Nc2ccc(N3CCN(S(C)(=O)=O)CC3)c(C#N)c2)n1 | 7170
81 | Cc1cc(/C=C/C#N)cc(C)c1Oc1ccnc(Nc2ccc3c(c2)C(=O)NCC3)n1 | 1220
82 | Cc1cc(/C=C/C#N)cc(C)c1Oc1ccnc(Nc2ccc3c(cnn3C)c2)n1 | > 18200
83 | Cc1cc(/C=C/C#N)cc(C)c1Oc1ccnc(Nc2ccc3cnsc3c2)n1 | 4140

Tested on: not listed separately
Experiment: in vitro
Details: human, MT4 cells
Remark: another data set of the same source
Description: Selectivity index, ratio of CC50 for human MT4 cells to EC50 for HIV-1 RES056 harboring RT K103N/Y181C mutant infected in human MT4 cells

Row | SMILES | selectivity ratio
84 | Cc1cc(/C=C/C#N)cc(C)c1Oc1ccnc(Nc2ccc3c(c2)COC3)n1 | 573
85 | Cc1cc(/C=C/C#N)cc(C)c1Oc1ccnc(Nc2ccc3nccn3c2)n1 | 20
86 | Cc1cc(/C=C/C#N)cc(C)c1Oc1ccnc(Nc2ccc3c(c2)NC(=O)C3)n1 | > 1
87 | Cc1cc(/C=C/C#N)cc(C)c1Oc1ccnc(Nc2ccc(N3CCN(S(C)(=O)=O)CC3)c(C#N)c2)n1 | 110
88 | Cc1cc(/C=C/C#N)cc(C)c1Oc1ccnc(Nc2ccc3c(c2)C(=O)NCC3)n1 | 2
89 | Cc1cc(/C=C/C#N)cc(C)c1Oc1ccnc(Nc2ccc3cnsc3c2)n1 | 22

Tested on: Human immunodeficiency virus 1
Experiment: microbe, parasite or virus in culture
Details: Human immunodeficiency virus 1, IIIB, MT4, 120 h
Description: Antiviral activity against wild type HIV-1 IIIB infected in human MT4 cells assessed as protection against virus-induced cytopathic effect incubated for 5 days by MTT assay

Row | SMILES | EC50
90 | Cc1cc(/C=C/C#N)cc(C)c1Oc1ccnc(Nc2ccc3c(c2)COC3)n1 | 2 nM
91 | Cc1cc(/C=C/C#N)cc(C)c1Oc1ccnc(Nc2ccc3nccn3c2)n1 | 2 nM
92 | Cc1cc(/C=C/C#N)cc(C)c1Oc1ccnc(Nc2ccc3c(c2)NC(=O)C3)n1 | 2 nM
93 | Cc1cc(/C=C/C#N)cc(C)c1Oc1ccnc(Nc2ccc(N3CCN(S(C)(=O)=O)CC3)c(C#N)c2)n1 | 1 nM
94 | Cc1cc(/C=C/C#N)cc(C)c1Oc1ccnc(Nc2ccc3c(c2)C(=O)NCC3)n1 | 3 nM
95 | Cc1cc(/C=C/C#N)cc(C)c1Oc1ccnc(Nc2ccc3c(cnn3C)c2)n1 | 3 nM
96 | Cc1cc(/C=C/C#N)cc(C)c1Oc1ccnc(Nc2ccc3cnsc3c2)n1 | 2 nM
97 | Cc1ccnc2c1NC(=O)c1cccnc1N2C1CC1 [NEVIRAPINE] | 130 nM
